This is an account of results in patent EP0503388A1, “Pregna-21-oic acid esters” (TEIKOKU SEIYAKU KABUSHIKI KAISHA, priority 1991, dated 1992).

In the assay the test system is back of volunteers (10 healthy adult males). Put plainly: Vasoconstrictive activity: skin paleness after application of 0.1 % ointment in fin chamber. The assay is classed as in vivo. The note with it: for % of the number of subject which showed (+) Paleness was clearly observed / % of the number of subject which showed (±) Paleness was slightly obseved: 0.1 % by weight, about 20 mg of sample, 10 subjects; for vasoconstrictive activity (skin paleness), overall result in words: 0.1 % by weight in white petrolatum base, compared with reference ointments of prednisolone and dexamethasone. The method, then: The compounds of the present invention were tested for the vasoconstrictive activity in the following manner.
Each of the compounds (1) to (10) of the present invention was mixed in a white petrolatum base (white petrolatum : liquid paraffin = 9 : 1) at a concentration of 0.1 % by weight for use as a test sample. Commercially available steroidal medicaments (ointments of prednisolone and dexamethasone) were used at a concentration of 0.1 % by weight of the steroid as a reference sample. A commercially available ointment base was used as a control.
To one portion of the back of volunteers (10 healthy adult males) was applied each sample. About 20 mg of each sample was put in an aluminum part of fin chamber, which was applied. Two hours and four hours after the application, samples were simultanously removed. […] The result was evaluated based on the following criteria (-) Paleness was not observed. (±) Paleness was slightly obseved. (+) Paleness was clearly observed.

The mark [1] stands for this setting: application time 2 hr, 2 hours after removal.
The mark [2] stands for this setting: application time 2 hr, 4 hours after removal.
[3] abbreviates: application time 4 hr, 2 hours after removal.
The mark [4] stands for this setting: application time 4 hr, 4 hours after removal.

Consider `C[C@]12C=CC(=O)C=C1CC[C@@H]1[C@@H]2[C@@H](O)C[C@@]2(C)[C@H]1CC[C@]2(O)C(=O)CO` [Prednisolone, prednisolone, reference compound], for which the “% of the number of subject which showed (+) Paleness was clearly observed” value under setting [1] worked out at 0%, the “% of the number of subject which showed (+) Paleness was clearly observed” value under setting [2] is recorded as 0%, the “% of the number of subject which showed (+) Paleness was clearly observed” value under setting [3] is 0% and the “% of the number of subject which showed (+) Paleness was clearly observed” value under setting [4] is 0%. Moreover, the “% of the number of subject which showed (±) Paleness was slightly obseved” value runs as follows: under setting [1], 0%; under setting [2], 0%; under setting [3], 0%; under setting [4], 0%.
`COC(=O)[C@H](O)[C@@]1(O)[C@H](C)C[C@H]2[C@@H]3CCC4=CC(=O)C=C[C@]4(C)[C@@]3(F)[C@@H](O)C[C@@]21C` [(6), methyl (20R)-9α-fluoro-16α-methyl-11β,17,20-trihydroxy-3-oxo-1,4-pregnadien-21-oate]: the “vasoconstrictive activity (skin paleness), overall result in words” value (shortened to “vasoconstrictive activity”) was “did not show significant difference from reference”.
In the case of `C[C@@H]1C[C@H]2[C@@H]3CCC4=CC(=O)C=C[C@]4(C)[C@@]3(F)[C@@H](O)C[C@]2(C)[C@@]1(O)C(=O)CO` [Dexamethasone, dexamethasone, reference compound], the “% of the number of subject which showed (+) Paleness was clearly observed” value by setting is: under setting [1], 0%; under setting [2], 0%; under setting [3], 0%; under setting [4], 0%. Further, the “% of the number of subject which showed (±) Paleness was slightly obseved” value is, setting by setting: under setting [1], 0%; under setting [2], 10%; under setting [3], 10%; under setting [4], 20%.
For `COC(=O)[C@H](OC(=O)C(C)(C)C)[C@@]1(O)[C@H](C)C[C@H]2[C@@H]3CCC4=CC(=O)C=C[C@]4(C)[C@@]3(F)[C@@H](O)C[C@@]21C` [Compound (10), methyl (20R)-11β,17-dihydroxy-9α-fluoro-16α-methyl-3-oxo-20-pivaloyloxy-1,4-pregnadien-21-oate], the “% of the number of subject which showed (+) Paleness was clearly observed” value under setting [1] turned out to be 0%, the “% of the number of subject which showed (+) Paleness was clearly observed” value under setting [2] is recorded as 0%, the “% of the number of subject which showed (+) Paleness was clearly observed” value under setting [3] is on record as 0% and the “% of the number of subject which showed (+) Paleness was clearly observed” value under setting [4] is 0%. Also, the “% of the number of subject which showed (±) Paleness was slightly obseved” value runs as follows: under setting [1], 0%; under setting [2], 10%; under setting [3], 0%; under setting [4], 10%.
With `COC(=O)[C@@H](OC(C)=O)[C@@]1(O)[C@H](C)C[C@H]2[C@@H]3CCC4=CC(=O)C=C[C@]4(C)[C@@]3(F)[C@@H](O)C[C@@]21C` [Compound (7), methyl (20S/R)-acetoxy-11β,17-dihydroxy-9α-fluoro-16α-methyl-3-oxo-1,4-pregnadien-21-oate], the “vasoconstrictive activity” value is “excellent pharmacological activity”. Under setting [1], the “% of the number of subject which showed (+) Paleness was clearly observed” value was 0% and the “% of the number of subject which showed (±) Paleness was slightly obseved” value is given as 10%. Further, under setting [2], the “% of the number of subject which showed (+) Paleness was clearly observed” value was determined as 0% and the “% of the number of subject which showed (±) Paleness was slightly obseved” value came to 50%. For the same molecule, under setting [3], the “% of the number of subject which showed (+) Paleness was clearly observed” value turned out to be 30% and the “% of the number of subject which showed (±) Paleness was slightly obseved” value was 70%. Further, under setting [4], the “% of the number of subject which showed (+) Paleness was clearly observed” value was 50% and the “% of the number of subject which showed (±) Paleness was slightly obseved” value is reported as 80%.
Take `COC(=O)[C@@H](O)[C@@]1(O)[C@H](C)C[C@H]2[C@@H]3CCC4=CC(=O)C=C[C@]4(C)[C@@]3(F)[C@@H](O)C[C@@]21C` [(5), methyl (20S)-9α-fluoro-16α-methyl-11β,17,20-trihydroxy-3-oxo-1,4-pregnadien-21-oate]: the “vasoconstrictive activity” value is recorded as “did not show significant difference from reference”.
As to `COC(=O)[C@H](OC(=O)C(C)(C)C)[C@@]1(O)CC[C@H]2[C@@H]3CCC4=CC(=O)C=C[C@]4(C)[C@H]3[C@@H](O)C[C@@]21C` [Compound (4)], the “% of the number of subject which showed (+) Paleness was clearly observed” value by setting is: under setting [1], 0%; under setting [2], 0%; under setting [3], 20%; under setting [4], 40%. Also, the “% of the number of subject which showed (±) Paleness was slightly obseved” value is given as 10% under setting [1], 70% under setting [2], 70% under setting [3] and 100% under setting [4].
For the molecule `COC(=O)[C@H](OC(C)=O)[C@@]1(O)[C@H](C)C[C@H]2[C@@H]3CCC4=CC(=O)C=C[C@]4(C)[C@@]3(F)[C@@H](O)C[C@@]21C` [Compound (8), methyl (20S/R)-acetoxy-11β,17-dihydroxy-9α-fluoro-16α-methyl-3-oxo-1,4-pregnadien-21-oate], the “vasoconstrictive activity” value is reported as “did not show significant difference from reference”.
Take `COC(=O)[C@@H](OC(=O)C(C)(C)C)[C@@]1(O)[C@H](C)C[C@H]2[C@@H]3CCC4=CC(=O)C=C[C@]4(C)[C@@]3(F)[C@@H](O)C[C@@]21C` [Compound (9), methyl (20S)-11β,17-dihydroxy-9α-fluoro-16α-methyl-3-oxo-20-pivaloyloxy-1,4-pregnadien-21-oate]: the “vasoconstrictive activity” value is listed as “excellent pharmacological activity”. Besides, under setting [1], the “% of the number of subject which showed (+) Paleness was clearly observed” value was determined as 0% and the “% of the number of subject which showed (±) Paleness was slightly obseved” value was found to be 0%. In addition, under setting [2], the “% of the number of subject which showed (+) Paleness was clearly observed” value was 0% and the “% of the number of subject which showed (±) Paleness was slightly obseved” value is recorded as 0%. Under setting [3], the “% of the number of subject which showed (+) Paleness was clearly observed” value was found to be 0% and the “% of the number of subject which showed (±) Paleness was slightly obseved” value worked out at 50%. Besides, under setting [4], the “% of the number of subject which showed (+) Paleness was clearly observed” value is 10% and the “% of the number of subject which showed (±) Paleness was slightly obseved” value was determined as 90%.
